The source of these data is US20160008336A1, “HDAC INHIBITORS FOR THE TREATMENT OF TRAUMATIC BRAIN INJURY” (Lixte Biotechnology, Inc., priority 2013, published 2016).

The test system of data set [1] is rodent brains following TBI (controlled cortical impact). The experiment in a line: FDG-PET imaging of rat brains after TBI. The settings on record: for glucose uptake levels: rat brain cells following TBI, activity expected analogous to 205. It is filed as in vivo. How it is done: (§1) The rats are anesthetized as described above. The rodent's head is be shaved, the animal placed in a stereotaxic device, the skin is prepared as in the Aseptic Techniques described above and the skull exposed using a small surgical incision over the temporal scalp. A small surgical incision (9-10 mm), a burr hole in the skull (5-6 mm), and a single contusion over the right frontal cortex is performed (FIG. 7). A 5.0 mm burr hole is drilled into the skull with a hand-held trephine to expose the dura mater. […] A single contusion is then made onto the surface of the dura (tip penetration depth of 2.1 mm, velocity of 5 m/s) over the left frontal cortex. Following CCI, the burr hole is covered with a bone flap, sealed with Jet Denture Repair Professional Package, and then the incision is closed with non-absorbable suture in a simple interrupted pattern. Sham-treated controls are treated similarly, but the impactor is not activated.
(§2) TBI rodent model animals are treated with HDACis post-surgery at 4 h, 24 h and 48 h. The efficiency of HDACi treatment is evaluated as shown in FIG. 9 by studying the following parameters: • A=FDG-PET imaging analysis • B=Rota behavior test • C=Pathology analysis (H&E, IHC, IF, & gross) • D=Frozen samples (2D gel and WB) • E=Harvest animals and procure brain samples • Tx=HDI treatment
FDG-PET imaging is conducted in larger animal cohorts treated with different drug concentrations to further confirm HDACis potential therapeutic effect in treating TBI and in increasing […].
^18F-FDG is purchased from the Nuclear Pharmacy of Cardinal Health, and reconstituted with sterile saline. PET scans and image analysis are performed using an Inveon microPET scanner (Siemens Medical Solutions). Each rat is injected with 18.5 MBq (500 μCi) of ^18F-FDG via tail vein. All the rats are maintained under anesthesia and warmed condition. 10 min static scans are acquired at 1 h after injection. The images are reconstructed using a two-dimensional ordered-subset expectation maximum (OSEM) algorithm, and no correction is applied for attenuation or scatter. For each microPET scan, regions of interest (ROIs) are drawn over the brain and muscle region using vendor software ASI Pro 5.2.4.0 on decay-corrected whole-body coronal images. The radioactivity accumulation within brain, heart and brown fat are obtained from mean pixel values within the multiple ROI volumes and then converted to megabecquerels (MBq) per milliliter […] using a conversion factor. These values are then divided by the administered activity to obtain (assuming a tissue density of 1 g/ml) an image-ROI-derived percent injected dose per gram (% ID/g).

In data set [2] the test system is post-traumatic brain injured rats. Kind of data set: Behavioral motor performance (balance beam) test after TBI. Format: in vivo, rat. To be noted: for motor skills tests: rats post-TBI, activity expected analogous to 205. How it is done:
as §1, §2
Balance Beam Test: The balance beam is a test of motor coordination (3-4). It is also a useful assay for sedation and joint pathology. Several beams are available. In general the round beams are harder than the square beams, and the thinner the beam the harder the test. In this test, animals have to walk and cross a round balance beam (like across one meter bridge-bar) to test their balance and motor skills. The score is recorded compared to sham group: • 100%: walk balance and cross whole balance beam. • 10%-90%: walk balance and cross balance beam from 10 cm to 90 cm. • 0%: walk unbalance and slip down

The test system of data set [3] is Caspase 3. The experiment in a line: Western blot of TBI brain tissue, Caspase 3. Format: in vivo, rat. The settings on record: for Pro-Caspase 3 expression: rat brain cells following TBI. How it is done: as §2
(§3) Sections of frozen tissue protein from normal brain and TBI tissues in the injury area are extracted in T-PER solution, sonicated and centrifuged at 15,000 g at 4° C. to remove insoluble debris. The supernatant is used as the lysate. The protein concentration in each sample is measured by a colorimetric assay (Bio-Rad Protein Assay Kit) (Bio-Rad; Hercules, Calif.). Samples are denatured at 95° C. for 5 minutes in protein loading buffer. Equal amounts of protein at thirty micrograms of each lysate is loaded onto 4%-20% SDS-polyacrylamide gel (Invitrogen), and the proteins are electrophoretically transferred to nitrocellulose membranes and blocked with 5% milk solution. Detection of protein-bound primary antibodies is performed with a horseradish peroxidase-conjugated secondary antibody specific to rabbit or mouse immunoglobulin for one hour and an enhanced chemiluminescence system. Expression of specific proteins in each sample are determined and TBI injury tissue protein expression are compared to normal brain.

For data set [4], the system named is phosphorylated-AKT. The experiment in a line: Western blot of TBI brain tissue, p-AKT. It is filed as in vivo. The settings on record: rat brain cells following TBI; for p-Akt expression: activity expected analogous to 205. On the procedure:
as §2, §3

The test system of data set [5] is Nestin. The experiment in a line: Immunofluorescence / immunohistochemistry after TBI, Nestin. It is filed as in vivo, rat. How it is done:
as §2
(§4) Immunohistochemistry staining is performed using commercially available GFAP and Nestin primary antibodies (Abcam) on formalin-fixed paraffin-embedded tissue mounted on positively charged slides. The expression of Nestin is thought to identify neural stem and progenitor cells within the central nervous system. GFAP expression, however, is thought to represent astrocyte activation. Samples are labeled and visualized using a DAB staining kit (EnvisionKit; Dako, Carpinteria, Calif., USA). Immunofluorescence staining is also performed (with primary antibodies for GFAP and Nestin) in order to best assess the spatial and temporal pattern of expression of molecular markers associated with astrocyte activation and gliosis observed during the brain tissue injury repair process. The specimens are visualized using a Zeiss LSM 510 confocal microscope (Carl Zeiss, Thornwood, N.Y., USA).

For data set [6], the system named is TBI damage area of rodent brain. The experiment in a line: Pathological analysis (H & E staining) and gross appearance after TBI. Format: in vivo, rat. How it is done: as §1, with “Sham-treated controls are treated similarly, but the impactor is not activated.” left out
as §2
Brain injury areas are measured and calculated post-TBI at 4 hours, day 1, and week (according to FIG. 9). […]

The test system of data set [7] is GFAP. Kind of data set: Immunofluorescence / immunohistochemistry after TBI, GFAP. To be noted: vs sham and TBI untreated brains, FIG. 6. Format: in vivo, rat. How it is done:
as §2, §4

For data set [8] the following is noted: relative to SAHA; cited from earlier work.
Data set [9] relates to transformed cells. To be noted: in vitro and in vivo; background; cited from earlier work.
Where [10] appears, read: activity expected analogous to 205.

Structures are written as SMILES. Entries after “also recorded” stand apart in the source; their conditions may differ.

As to `O=C(NCCCCCNC(=O)c1ccccc1S)c1cccnc1` [Compound 208], the glucose uptake levels result in [1] is given as “increase”. For the same molecule, the motor skills tests result in [2] is recorded as “perform significantly better”. In [3] (setting [10]), the “Pro-Caspase 3 expression” value is listed as “decrease”. Moreover, the p-Akt expression result in data set [4] is “increase”. Moreover, in data set [5] (setting [10]), the “formation of new stem-like proliferative neural cells following TBI” value (“formation” below) is on record as “induce formation”.
Take `O=C(CCCCCCCNC(=O)c1ccccc1S)Nc1ccccc1` [Compound 213]: the glucose uptake levels entry in data set [1] is recorded as “increase”. Further, in [2], the motor skills tests result is “perform significantly better”. Moreover, the “Pro-Caspase 3 expression” value in data set [3] (setting [10]) is on record as “decrease”. The p-Akt expression entry in [4] is listed as “increase”. The “formation” value in data set [5] (setting [10]) was “induce formation”.
Turning to `O=C(NCCCCCCNC(=O)c1ccccc1S)c1ccccc1S` [Compound 204], the glucose uptake levels entry in data set [1] is reported as “increase”. In [2], the motor skills tests entry is “perform significantly better”. Moreover, the “Pro-Caspase 3 expression” value in data set [3] (setting [10]) is “decrease”. The p-Akt expression entry in [4] is listed as “increase”. The “formation” value in data set [5] (setting [10]) is “induce formation”.
For the molecule `O=C(CCCCCNC(=O)c1ccccc1S)Nc1cccnc1` [Compound 205, 2-Mercapto-N-[5-(pyridin-3-ylcarbamoyl)pentyl]benzamide], the “glucose uptake levels at the site of injury (FDG-PET)” value in data set [1] (rats post-TBI, treated post-surgery at 4 h, 24 h and 48 h, FIG. 1) is recorded as “significantly increased; also recorded: increased glucose levels”. Besides, the “angiogenic activity in the brain” value in data set [1] (rodent model of TBI, post-injury administration) is “up-regulated angiogenic activity”. Further, the “H & E staining: reactive gliosis and cellularity” value in data set [6] (FIG. 3) was “increased reactive gliosis (arrow) and more active brain cells observed; also recorded: increased reactive gliosis (as well as increased cellularity)”. The “gross appearance of TBI damage area / scarring” value in data set [6] (gross post-mortem examination, FIG. 2) was “improved; also recorded: much less scaring and less appearance of obvious injury; also recorded: reduced scarring”. Besides, the “behavioral motor performance (motor skill tests)” value in [2] (post-injury administration, 10 mg/kg, one meter bar, FIG. 4) is recorded as “improves behavioral performance; also recorded: performed significantly better”. Besides, the “Cleaved Caspase 3 expression” value in [3] (Western blot, FIG. 5a) is recorded as “significantly decreased”. Further, the “Pro-Caspase 3 expression” value in data set [3] (FIG. 5a) is recorded as “decreased”. For the same molecule, the p-AKT expression result in [4] (FIG. 5b) is on record as “increased”. In addition, in data set [5] (following TBI), the “formation” value is given as “induced formation”. In [5] (vs sham and TBI untreated brains, FIG. 6), the “Nestin staining / expression” value is reported as “increased”. Moreover, the “GFAP staining / expression” value in data set [7] is “increased”. Also, the half-life in vivo entry in data set [8] is “longer half-life in vivo”.
As to `O=C(NCCCCCCNC(=O)c1ccccc1O)c1ccccc1O` [Compound 203], in data set [1], the glucose uptake levels entry is reported as “increase”. In addition, in [2], the motor skills tests entry was “perform significantly better”. Moreover, in [3] (setting [10]), the “Pro-Caspase 3 expression” value is recorded as “decrease”. Besides, the p-Akt expression result in data set [4] was “increase”. In data set [5] (setting [10]), the “formation” value is listed as “induce formation”.
Consider `O=C(CCCCCNC(=O)c1cc(Cl)ccc1S)Nc1ccccc1` [Compound 210], for which the glucose uptake levels entry in [1] is “increase”. In addition, the motor skills tests entry in data set [2] was “perform significantly better”. Moreover, the “Pro-Caspase 3 expression” value in data set [3] (setting [10]) is given as “decrease”. For the same molecule, the p-Akt expression result in [4] is on record as “increase”. In addition, the “formation” value in data set [5] (setting [10]) is reported as “induce formation”.
In the case of `CN(C)c1ccc(NC(=O)CCCCCNC(=O)c2ccccc2S)cc1` [Compound 206], the glucose uptake levels result in data set [1] is “increase”. Moreover, in data set [2], the motor skills tests result is reported as “perform significantly better”. Besides, in data set [3] (setting [10]), the “Pro-Caspase 3 expression” value is listed as “decrease”. In addition, the p-Akt expression result in data set [4] is reported as “increase”. Moreover, the “formation” value in [5] (setting [10]) was “induce formation”.
Take `O=C(CCCCCNC(=O)c1ccccc1S)Nc1ccccc1` [Compound 201, 2-Mercapto-N-[5-(phenyl-3-ylcarbamoyl)pentyl]benzamide]: the glucose uptake levels result in data set [1] is given as “increase”. In [2], the motor skills tests result is listed as “perform significantly better”. In addition, in data set [3] (setting [10]), the “Pro-Caspase 3 expression” value is reported as “decrease”. Besides, in [4], the p-Akt expression entry was “increase”. The “formation” value in data set [5] (setting [10]) was “induce formation”.
Consider `O=C(CCCCCCC(=O)Nc1ccccc1)NO` [SAHA, Suberoylanilide hydroxamic acid], for which the “growth arrest and death of transformed cells” value in [9] was “causes growth arrest and death”.
Consider `COc1ccc(S)c(C(=O)NCCCCCC(=O)Nc2ccccc2)c1` [Compound 211], for which the glucose uptake levels result in data set [1] is recorded as “increase”. Also, the motor skills tests result in data set [2] is “perform significantly better”. The “Pro-Caspase 3 expression” value in data set [3] (setting [10]) was “decrease”. In addition, the p-Akt expression result in data set [4] is recorded as “increase”. Further, the “formation” value in data set [5] (setting [10]) is reported as “induce formation”.
With `O=C(CCCCCNC(=O)c1cc(Cl)ccc1S)Nc1cccnc1` [Compound 207a], the glucose uptake levels result in data set [1] is “increase”. Also, the motor skills tests entry in data set [2] is “perform significantly better”. In data set [3] (setting [10]), the “Pro-Caspase 3 expression” value is “decrease”. In [4], the p-Akt expression result was “increase”. Also, in [5] (setting [10]), the “formation” value is “induce formation”.
`O=C(CCCCCCNC(=O)c1ccccc1S)Nc1ccccc1` [Compound 212]: in [1], the glucose uptake levels entry is “increase”. The motor skills tests result in data set [2] was “perform significantly better”. The “Pro-Caspase 3 expression” value in [3] (setting [10]) was “decrease”. Further, in [4], the p-Akt expression result is listed as “increase”. For the same molecule, the “formation” value in data set [5] (setting [10]) is “induce formation”.
On to `O=C(CCCCCCCCCCNC(=O)c1ccccc1S)Nc1ccccc1` [Compound 214], for which the glucose uptake levels result in data set [1] is given as “increase”. Moreover, in data set [2], the motor skills tests result is “perform significantly better”. Also, the “Pro-Caspase 3 expression” value in data set [3] (setting [10]) was “decrease”. Besides, in data set [4], the p-Akt expression entry is given as “increase”. Further, the “formation” value in data set [5] (setting [10]) is given as “induce formation”.
Turning to `Nc1ccc(NC(=O)CCCCCNC(=O)c2ccccc2S)cc1` [Compound 209], in data set [1], the glucose uptake levels entry was “increase”. In addition, the motor skills tests result in data set [2] is recorded as “perform significantly better”. The “Pro-Caspase 3 expression” value in data set [3] (setting [10]) was “decrease”. In addition, the p-Akt expression result in data set [4] is “increase”. Further, the “formation” value in [5] (setting [10]) was “induce formation”.
